# From US9662327B2 (AGIOS PHARMACEUTICALS, INC, priority 2011, dated 2017)
# Target: IDH1 R132H (Homo sapiens (Human), UniProt O75874, R132H)
# Experiment: Assays for IDH1 R132H Inhibitors (NADPH/aKG, resazurin detection)
# Type: biochemical
# Conditions: not given
# Outline: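 Substrate mix held 8 uM NADPH plus 2 mM aKG; buffer was 20 mM Tris pH 7.5 with 150 mM NaCl, 10 mM MgCl2, 0.03% BSA. After 50 min room-temperature reaction, NADPH remaining was detected with 30 μM resazurin mix over 5 min.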
# Sequence of IDH1 R132H (O75874 whole entry R132H): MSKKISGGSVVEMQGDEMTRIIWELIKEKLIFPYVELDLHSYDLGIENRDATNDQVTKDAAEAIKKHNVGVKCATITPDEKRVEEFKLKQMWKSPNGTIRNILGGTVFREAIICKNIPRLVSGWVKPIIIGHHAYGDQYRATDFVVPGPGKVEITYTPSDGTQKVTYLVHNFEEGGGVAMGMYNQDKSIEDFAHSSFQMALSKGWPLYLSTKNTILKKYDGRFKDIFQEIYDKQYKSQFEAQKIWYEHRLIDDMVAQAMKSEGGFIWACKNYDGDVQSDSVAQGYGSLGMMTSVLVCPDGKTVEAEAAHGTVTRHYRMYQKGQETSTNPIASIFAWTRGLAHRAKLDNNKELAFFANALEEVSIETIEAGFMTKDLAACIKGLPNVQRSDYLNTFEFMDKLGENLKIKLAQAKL
row,Compound,IC50
1,"CC1(C)Cc2c(C#N)c(N3CCN(C(=O)c4ccco4)CC3)nc(C3CC3)c2CO1 [Compound 142, 8-cyclopropyl-6-(4-(furan-2-carbonyl)piperazin-1-yl)-3,3-dimethyl-3,4-dihydro-1H-pyrano[3,4-c]pyridine-5-carbonitrile]",1000 to 10000 nM

# Same assay, conditions: IDH1 R132H enzyme, Table 2; read-out: IDHR132H Activity
row,Compound,IC50
1,"COc1ccccc1CC(=O)N1CCN(c2nc(C(C)C)c3c(c2C#N)CC(C)(C)OC3)C[C@H]1C [Compound 199, (R)-8-isopropyl-6-(4-(2-(2-methoxyphenyl)acetyl)-3-methylpiperazin-1-yl)-3,3-dimethyl-3,4-dihydro-1H-pyrano[3,4-c]pyridine-5-carbonitrile]",1000 to 10000 nM
2,"Cc1nccn1CC(=O)N1CCN(c2nc(C3CC3)c3c(c2C#N)CC(C)(C)OC3)C[C@H]1C(C)C [Compound 380, (R)-8-cyclopropyl-6-(3-isopropyl-4-(2-(2-methyl-1H-imidazol-1-yl)acetyl)piperazin-1-yl)-3,3-dimethyl-3,4-dihydro-1H-pyrano[3,4-c]pyridine-5-carbonitrile]",1000 to 10000 nM
3,"CCOC(=O)C1CN(c2nc(C3CCCCC3)c3c(c2C#N)CCOC3)CCN1C(=O)CCSC (stereo not shown) [Compound 313, ethyl 4-(5-cyano-8-cyclohexyl-3,4-dihydro-1H-pyrano[3,4-c]pyridin-6-yl)-1-(3-(methylthio)-propanoyl)piperazine-2-carboxylate]",1000 to 10000 nM
4,"CC(C)c1nc(N2CCN(C(=O)Cc3cccnc3)[C@H](C(C)C)C2)c(C#N)c2c1COC(C)(C)C2 [Compound 250, (R)-8-isopropyl-6-(3-isopropyl-4-(2-(pyridin-3-yl)acetyl)piperazin-1-yl)-3,3-dimethyl-3,4-dihydro-1H-pyrano[3,4-c]pyridine-5-carbonitrile]",500 to 1000 nM
5,"CNC(=O)N1CCN(c2nc(C3CCCCC3)c3c(c2C#N)CCOC3)C[C@H]1C [Compound 357, (R)-4-(5-cyano-8-cyclohexyl-3,4-dihydro-1H-pyrano[3,4-c]pyridin-6-yl)-N,2-dimethylpiperazine-1-carboxamide]",1000 to 10000 nM
6,"CC(C)c1nc(N2CCN(C(=O)c3cccs3)[C@H](C)C2)c(C#N)c2c1COC(C)(C)C2 [Compound 246, (R)-8-isopropyl-3,3-dimethyl-6-(3-methyl-4-(thiophene-2-carbonyl)piperazin-1-yl)-3,4-dihydro-1H-pyrano[3,4-c]pyridine-5-carbonitrile]",1000 to 10000 nM
7,"COC(=O)N1CCN(c2nc(C3CC3)c3c(c2C#N)CC(C)(C)OC3)C[C@H]1C(C)C [Compound 346, (R)-methyl 4-(5-cyano-8-cyclopropyl-3,3-dimethyl-3,4-dihydro-1H-pyrano[3,4-c]pyridin-6-yl)-2-isopropylpiperazine-1-carboxylate]",< 500 nM
8,"CC(C)c1nc(N2CCN(C(=O)c3ccoc3)[C@H](c3ccccc3)C2)c(C#N)c2c1COC(C)(C)C2 [Compound 256, (R)-6-(4-(furan-3-carbonyl)-3-phenylpiperazin-1-yl)-8-isopropyl-3,3-dimethyl-3,4-dihydro-1H-pyrano[3,4-c]pyridine-5-carbonitrile]",1000 to 10000 nM
9,"CCc1nc(N2CCN(C(=O)CCOC)[C@H](C(C)C)C2)c(C#N)c2c1COC(C)(C)C2 [Compound 413, (R)-8-ethyl-6-(3-isopropyl-4-(3-methoxypropanoyl)piperazin-1-yl)-3,3-dimethyl-3,4-dihydro-1H-pyrano[3,4-c]pyridine-5-carbonitrile]",< 500 nM
10,"C[C@@H]1CN(c2nc(C3CCCC3)c3c(c2C#N)CCOC3)C[C@H](C)N1C(=O)NC1CCCCC1 [Compound 127, (2S,6R)-4-(5-cyano-8-cyclopentyl-3,4-dihydro-1H-pyrano[3,4-c]pyridin-6-yl)-N-cyclohexyl-2,6-dimethylpiperazine-1-carboxamide]",1000 to 10000 nM
11,"C=CCNC(=O)N1CCN(c2nc(C(C)C)c3c(c2C#N)CC(C)(C)OC3)CC1C(=O)OCC (stereo not shown) [Compound 331, ethyl 1-(allylcarbamoyl)-4-(5-cyano-8-isopropyl-3,3-dimethyl-3,4-dihydro-1H-pyrano[3,4-c]pyridin-6-yl)piperazine-2-carboxylate]",1000 to 10000 nM
12,"CC(C)c1nc(N2CCN(C(=O)Cc3cccs3)[C@H](C(C)C)C2)c(C#N)c2c1COC(C)(C)C2 [Compound 195, (R)-8-isopropyl-6-(3-isopropyl-4-(2-(thiophen-2-yl)acetyl)piperazin-1-yl)-3,3-dimethyl-3,4-dihydro-1H-pyrano[3,4-c]pyridine-5-carbonitrile]",< 500 nM
13,"C[C@@H]1CN(c2nc(C3CCCCC3)c3c(c2C#N)CCOC3)CCN1S(C)(=O)=O [Compound 336, (R)-8-cyclohexyl-6-(3-methyl-4-(methylsulfonyl)piperazin-1-yl)-3,4-dihydro-1H-pyrano[3,4-c]pyridine-5-carbonitrile]",1000 to 10000 nM
14,"Cc1cc(C(=O)N2CCN(c3nc(C(C)C)c4c(c3C#N)CC(C)(C)OC4)C[C@H]2C)c(C)o1 [Compound 196, (R)-6-(4-(2,5-dimethylfuran-3-carbonyl)-3-methylpiperazin-1-yl)-8-isopropyl-3,3-dimethyl-3,4-dihydro-1H-pyrano[3,4-c]pyridine-5-carbonitrile]",1000 to 10000 nM
15,"CC(C)COC(=O)N1CCN(c2nc(C3CC3)c3c(c2C#N)CC(C)(C)OC3)C[C@H]1C(C)C [Compound 339, (R)-isobutyl 4-(5-cyano-8-cyclopropyl-3,3-dimethyl-3,4-dihydro-1H-pyrano[3,4-c]pyridin-6-yl)-2-isopropyl-piperazine-1-carboxylate]",1000 to 10000 nM
16,"CSCCC(=O)N1CCN(c2nc(C3CC3)c3c(c2C#N)CC(C)(C)OC3)CC1(C)C [Compound 320, 8-cyclopropyl-6-(3,3-dimethyl-4-(3-(methylthio)propanoyl)piperazin-1-yl)-3,3-dimethyl-3,4-dihydro-1H-pyrano[3,4-c]pyridine-5-carbonitrile]",1000 to 10000 nM
17,"C[C@@H]1CN(c2nc(C3CCCCC3)c3c(c2C#N)CCOC3)CCN1C(=O)C1CCOC1 (stereo partly drawn) [Compound 263, 8-cyclohexyl-6-((3R)-3-methyl-4-(tetrahydrofuran-3-carbonyl)piperazin-1-yl)-3,4-dihydro-1H-pyrano[3,4-c]pyridine-5-carbonitrile]",1000 to 10000 nM
18,"C[C@@H]1CN(c2nc(C3CCCCC3)c3c(c2C#N)CC(C)(C)OC3)CCN1C(=O)c1ccco1 [Compound 150, (R)-8-cyclohexyl-6-(4-(furan-2-carbonyl)-3-methylpiperazin-1-yl)-3,3-dimethyl-3,4-dihydro-1H-pyrano[3,4-c]pyridine-5-carbonitrile]",1000 to 10000 nM
19,"CC1(C)Cc2c(C#N)c(N3CCN(C(=O)c4ccco4)CC3)nc(C3CCCCC3)c2CO1 [Compound 117, 8-cyclohexyl-6-(4-(furan-2-carbonyl)piperazin-1-yl)-3,3-dimethyl-3,4-dihydro-1H-pyrano[3,4-c]pyridine-5-carbonitrile]",1000 to 10000 nM
20,"CC(C)c1nc(N2CCN(C(=O)c3ccco3)[C@H](c3ccccc3)C2)c(C#N)c2c1COC(C)(C)C2 [Compound 200, (R)-6-(4-(furan-2-carbonyl)-3-phenylpiperazin-1-yl)-8-isopropyl-3,3-dimethyl-3,4-dihydro-1H-pyrano[3,4-c]pyridine-5-carbonitrile]",1000 to 10000 nM
21,"CC(C)c1nc(N2CCN(C(=O)c3ccsc3)[C@H](C)C2)c(C#N)c2c1COC(C)(C)C2 [Compound 251, (R)-8-isopropyl-3,3-dimethyl-6-(3-methyl-4-(thiophene-3-carbonyl)piperazin-1-yl)-3,4-dihydro-1H-pyrano[3,4-c]pyridine-5-carbonitrile]",1000 to 10000 nM
22,"CC[C@@H]1CN(c2nc(C3CC3)c3c(c2C#N)CC(C)(C)OC3)CCN1C(=O)CCOC [Compound 297, (R)-8-cyclopropyl-6-(3-ethyl-4-(3-methoxypropanoyl)piperazin-1-yl)-3,3-dimethyl-3,4-dihydro-1H-pyrano[3,4-c]pyridine-5-carbonitrile]",< 500 nM
23,CC(C)[C@@H]1CN(c2nc(C3CC3)c3c(c2C#N)CC(C)(C)OC3)CCN1C(=O)C1CCOCC1 [Compound 305],1000 to 10000 nM
24,"C[C@@H]1CN(c2nc(C3CCCCC3)c3c(c2C#N)CCOC3)CCN1C(=O)Cc1cccs1 [Compound 185, (R)-8-cyclohexyl-6-(3-methyl-4-(2-(thiophen-2-yl)acetyl)piperazin-1-yl)-3,4-dihydro-1H-pyrano[3,4-c]pyridine-5-carbonitrile]",1000 to 10000 nM
25,"C[C@@H]1CN(c2nc(C3CCCCC3)c3c(c2C#N)CCOC3)CCN1C(=O)c1csc2ccccc12 [Compound 243, (R)-6-(4-(benzo[b]thiophene-3-carbonyl)-3-methylpiperazin-1-yl)-8-cyclohexyl-3,4-dihydro-1H-pyrano[3,4-c]pyridine-5-carbonitrile]",1000 to 10000 nM
26,"CC(C)c1nc(N2CCN(C(=O)c3ccco3)C(C)C2)c(C#N)c2c1COC(C)(C)C2 (stereo not shown) [Compound 137, 6-(4-(furan-2-carbonyl)-3-methylpiperazin-1-yl)-8-isopropyl-3,3-dimethyl-3,4-dihydro-1H-pyrano[3,4-c]pyridine-5-carbonitrile]",1000 to 10000 nM
27,"CCCNC(=O)N1CCN(c2nc(C3CC3)c3c(c2C#N)CC(C)(C)OC3)C[C@H]1C(C)C [Compound 350, (R)-4-(5-cyano-8-cyclopropyl-3,3-dimethyl-3,4-dihydro-1H-pyrano[3,4-c]pyridin-6-yl)-2-isopropyl-N-propylpiperazine-1-carboxamide]",1000 to 10000 nM
28,Cc1nc2ccccn2c1C(=O)N1CCN(c2nc(C3CC3)c3c(c2C#N)CC(C)(C)OC3)C[C@H]1C(C)C [Compound 229],1000 to 10000 nM
29,C[C@@H]1CN(c2nc(C3CC3)c3c(c2C#N)CC(C)(C)OC3)CCN1C(=O)c1ccco1 [Compound 167],1000 to 10000 nM

# Same assay, conditions: IDH1 R132H enzyme, Table 3; read-out: R132H IC50
row,Compound,IC50
1,"CC(C)[C@@H]1CN(c2nc(C3CC3)c3c(c2C#N)CC(C)(C)OC3)CCN1C(=O)CCc1ccco1 [Compound 447, (R)-8-cyclopropyl-6-(4-(3-(furan-2-yl)propanoyl)-3-isopropylpiperazin-1-yl)-3,3-dimethyl-3,4-dihydro-1H-pyrano[3,4-c]pyridine-5-carbonitrile]",500 to 1000 nM
